The values that follow come from patent publication US9623025B2 (priority 2009, dated 2017).

The structures appear in SMILES notation. pKi: −log10 of the molar value.

The assay concerns the target hCA IX (Homo sapiens, UniProt Q16790). As to the kind of experiment: biochemical.

As usually defined, the pKi is the Ki on a negative log10 scale, so that one unit is a factor of ten. Read a low pKi as a large Ki.

In the case of `Cc1cn(-c2cc(NC(=O)c3ccc(C)c(Nc4nccc(-c5cccnc5)n4)c3)cc(C(F)(F)F)c2)cn1` [Nilotinib, 4-methyl-3-[[4-(3-pyridinyl)-2-pyrimidinyl]amino]-N-[5-(4-methyl-1H-imidazol-1-yl)-3-(trifluoromethyl)phenyl] benzamide], the pKi was 7.12 to 7.38.
